The source of these data is PubChem BioAssay (NCI).

Among the test systems are COLO 205 colon; MDA-MB-231 breast; NCI-H23 lung; SK-MEL-5 melanoma; KM20L2 colon; HOP-62 NSCLC; MALME-3M melanoma; NCI-H460 lung; MDA-N; PC-3 prostate; OVCAR-3 ovarian; MOLT-4 leukemia; HCT-15 colon; ACHN renal; OVCAR-5 ovarian; RXF 393 renal; IGROV1 ovarian; LOX IMVI melanoma; HOP-92 NSCLC; CAKI-1 renal.
What all share (test): inhibition of tumour cell growth, NCI panel, 48 h

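Assay format: 96-well plates, 48-hour exposure. TGI: concentration producing complete growth inhibition.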

On to `NC(=S)N1N=C2c3ccccc3CCC[C@H]2[C@@H]1c1ccccc1`, for which the TGI in the assay with COLO 205 colon came to 6.32 µM; with MDA-MB-231 breast it was 17.1 µM; in the assay with NCI-H23 lung, 27.8 µM; in the assay on SK-MEL-5 melanoma it was 8.93 µM; in the assay on KM20L2 colon it was 5.22 µM; with HOP-62 NSCLC, 19.2 µM. For the same compound, the TGI with MALME-3M melanoma amounted to 21.5 µM; in the assay on NCI-H460 lung, 12.1 µM; in the assay on MDA-N, 0.279 µM; in the assay with PC-3 prostate, 18.3 µM; in the assay on OVCAR-3 ovarian, 1.94 µM; with MOLT-4 leukemia, 18.9 µM. Also, the TGI was determined as 26.2 µM in the assay on HCT-15 colon; 30.6 µM with ACHN renal; 55.5 µM with OVCAR-5 ovarian; 6.68 µM in the assay on RXF 393 renal; 25 µM in the assay on IGROV1 ovarian; 16.4 µM in the assay on LOX IMVI melanoma.

As for `CC12CCc3ccccc3C1=NNC(=O)C2` (configuration not stated), the TGI in the assay on COLO 205 colon, with HOP-92 NSCLC, with NCI-H23 lung, in the assay with SK-MEL-5 melanoma, in the assay on KM20L2 colon and with HOP-62 NSCLC was over 100 µM each time. The TGI in the assay with MALME-3M melanoma, with NCI-H460 lung, with OVCAR-3 ovarian, with MOLT-4 leukemia, in the assay on HCT-15 colon and in the assay with ACHN renal was over 100 µM in each case. In addition, the TGI with OVCAR-5 ovarian, in the assay with RXF 393 renal, in the assay with IGROV1 ovarian, with LOX IMVI melanoma and with CAKI-1 renal was over 100 µM in each case.

For the compound `O=C(NC1=C(Cl)C(=O)c2ccccc2C1=O)C(=O)C(C(=O)c1ccc2ccccc2c1)C1OC(=O)c2ccccc21` (configuration not stated), the TGI in the assay with COLO 205 colon worked out at 18.5 µM; in the assay on HOP-92 NSCLC, 10.3 µM; with NCI-H23 lung it was 13.4 µM; in the assay with SK-MEL-5 melanoma it was 1.96 µM; with KM20L2 colon it was 18.6 µM; in the assay on HOP-62 NSCLC it was 20.2 µM. Moreover, the TGI was 4.16 µM in the assay with MALME-3M melanoma; 12 µM with NCI-H460 lung; 9.77 µM with OVCAR-3 ovarian; 14.1 µM in the assay on MOLT-4 leukemia; 18 µM in the assay with HCT-15 colon; 21.1 µM with ACHN renal. Also, the TGI with OVCAR-5 ovarian came out at 27.5 µM; with RXF 393 renal, 12.8 µM; in the assay on IGROV1 ovarian, 27 µM; in the assay with LOX IMVI melanoma it was 11.2 µM; in the assay on CAKI-1 renal, 23.2 µM.
